In patent US20090227600A1, “4-(PYRAZINE-2-YL) -PYRROLIDINE -2-CARBOXYLIC ACID COMPOUNDS AND DERIVATIVES THEREOF AS HEPATITIS C VIRUS INHIBITORS” (priority 2004, published 2009):

Each compound was assayed against T1, HCV RNA Polymerase, recombinant NS5B with C-terminal 21 amino acid deletion, genotype 1a strain H77 (Hepatitis C virus genotype 1a, UniProt P27958) (assay: In vitro HCV RNA-dependent RNA polymerase inhibition assay, genotype 1a C-terminally truncated (delta21) enzyme). Details: genotype 1a delta21 NS5B enzyme; read-out: IC50 in delta-21 1a enzyme inhibition assay.
T1 construct: fused on or other part: C-terminal 6His-tag
T1 sequence (P27958 2421-3011 V2599I, form open): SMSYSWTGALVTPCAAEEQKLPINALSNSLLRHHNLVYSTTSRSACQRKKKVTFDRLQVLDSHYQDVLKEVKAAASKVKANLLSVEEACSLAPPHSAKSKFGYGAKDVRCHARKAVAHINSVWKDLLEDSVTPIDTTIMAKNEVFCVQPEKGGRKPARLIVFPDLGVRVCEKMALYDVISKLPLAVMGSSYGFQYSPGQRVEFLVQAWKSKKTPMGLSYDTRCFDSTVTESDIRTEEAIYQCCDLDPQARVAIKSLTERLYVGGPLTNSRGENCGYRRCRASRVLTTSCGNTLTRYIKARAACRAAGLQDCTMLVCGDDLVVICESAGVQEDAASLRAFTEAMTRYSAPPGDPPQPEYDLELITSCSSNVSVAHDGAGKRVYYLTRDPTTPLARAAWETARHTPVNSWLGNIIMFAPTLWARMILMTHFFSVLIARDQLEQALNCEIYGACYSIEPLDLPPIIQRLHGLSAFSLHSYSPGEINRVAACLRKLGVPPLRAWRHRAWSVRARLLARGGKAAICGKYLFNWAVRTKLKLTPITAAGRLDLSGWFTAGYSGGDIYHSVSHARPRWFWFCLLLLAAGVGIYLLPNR
Assay type: biochemical, HCV genotype 1a
Text: Incorporation of [^33P]-GMP into RNA was followed by absorption of the biotin labelled RNA polymer by streptavidin containing SPA beads. A synthetic template consisting of biotinylated 13mer-oligoG hybridised to polyrC was used as a homopolymer substrate.
a) Genotype 1a C-Terminally Truncated (delta21) Enzyme
HCV RNA Polymerase [Recombinant NS5B with C-terminal 21 amino acid deletion and C-terminal 6His-tag (Ferrari et al. J. Virol, 73(2), 1999, 1649. ‘Characterization of soluble hepatitis C virus RNA-dependent RNA polymerase expressed in Escherichia coli.’) expressed in E. coli and purified to homogeneity] was added to 25 nM final concentration. Polymerase of genotype 1a was from strain H77 (Yanagi, M., Purcell, R. H., Emerson, S. U. & Bukh, J. (1997), Proceedings of the National Academy of Sciences, USA 94, 8738-8743) containing a sequence change from valine to isoleucine at position 180.
Reaction Conditions were 25 nM enzyme, 1.5 μg/ml oligo-rG13/poly-rC and 0.2 μCi α-^33P-GTP in 0.5 μM GTP (20 Ci/mMol), 20 mM Tris pH 7.5, 23 mM NaCl, 3 mM DTT, 5 mM MgCl2, 1 mM MnCl2.
Enzyme was diluted to 500 nM concentration in 20 mM Tris-HCl, pH 7.5, 25 mM NaCl and 3 mM DTT.
4× concentrated assay buffer mix was prepared using 1M Tris-HCl, pH7.5 (1 mL), 5M NaCl (0.25 mL), 1M DTT (0.12 mL) and Water (8.63 mL), Total 10 mL.
2× concentrated first reagent was prepared using 4× concentrated assay buffer mix (5 μL), 40 u/μL RNasin (0.1 μL), 20 μg/mL polyrC/biotinylated-oligoG (1.6 μL), 500 nM enzyme (1 μL) and Water (2.3 μL), Total 10 μl/well.
2× concentrated second reagent was prepared using 1M MgCl2 (0.1 μL), 1M MnCl2 (0.02 μL), 25 μM GTP (0.4 μL), α-[^33P]-GTP (10 μCi/μL, 0.02 μL) and water (9.5 μL), Total 10 μL/well.
The assay was set up using compound (1 μL in 100% DMSO), first reagent (10 μL), and second reagent (10 μL), Total 21 μL.
The reaction was performed in a U-bottomed, white, 96-well plate. The reaction was mixed on a plate-shaker, after addition of the Enzyme, and incubated for 1 h at 22° C. After this time, the reaction was stopped by addition of 60 μL 1.5 mg/ml streptavidin SPA beads (Amersham) in 0.1 M EDTA in PBS. The beads were incubated with the reaction mixture for 1 h at 22° C. after which 100 μL 0.1 M EDTA in PBS was added. The plate was sealed, mixed centrifuged and incorporated radioactivity determined by counting in a Trilux (Wallac) or Topcount (Packard) Scintillation Counter.
After subtraction of background levels without enzyme, any reduction in the amount of radioactivity incorporated in the presence of a compound, compared to that in the absence, was taken as a measure of the level of inhibition. Ten concentrations of compounds were tested in three- or fivefold dilutions. From the counts per minute, percentage of inhibition at highest concentration tested or IC50s for the compounds were calculated using GraFit 3, GraFit 4 or GraFit 5 (Erithacus Software Ltd.) software packages or a data evaluation macro for Excel based on XLFit Software (IDBS).
`COc1cc(C(=O)N2[C@@H](c3nccs3)[C@@H](c3cnccn3)C[C@@]2(CC(C)C)C(=O)O)ccc1C(C)(C)C` (racemic) [Compound A, rel-(2S,4S,5R)-2-Isobutyl-1-(4-tert-butyl-3-methoxybenzoyl)-4-(pyrazin-2-yl)-5-(1,3-thiazol-2-yl)pyrrolidine-2-carboxylic acid, reference compound] showed an IC50 of over 1000 nM. With `COc1cc(C(=O)N2[C@@H](c3nccs3)[C@@H](c3cnccn3)C[C@@]2(Cc2ccccn2)C(=O)O)ccc1C(C)(C)C` (racemic) [Compound C, rel-(2R,4S,5R)-1-(4-tert-Butyl-3-methoxybenzoyl)-2-(pyridin-2-ylmethyl)-4-(pyrazin-2-yl)-5-(1,3-thiazol-2-yl)pyrrolidine-2-carboxylic acid, reference compound] the IC50 was 150 to 1000 nM. `COc1cc(C(=O)N2[C@@H](c3nccs3)[C@@H](c3cnccn3)C[C@@]2(Cc2c[nH]cn2)C(=O)O)ccc1C(C)(C)C` (racemic) [Compound D, rel-(2R,4S,5R)-1-(4-tert-Butyl-3-methoxybenzoyl)-2-(1H-imidazol-4-yl-methyl)-4-(pyrazin-2-yl)-5-(1,3-thiazol-2-yl)-pyrrolidine-2-carboxylic acid, reference compound] gave an IC50 of over 1000 nM. Compound `COc1cc(C(=O)N2[C@@H](c3cncs3)[C@@H](c3cnccn3)C[C@@]2(CCSC)C(=O)O)ccc1C(C)(C)C` (racemic) [Compound E, rel-(2R,4S,5R)-1-(4-tert-Butyl-3-methoxybenzoyl)-2-(2-(methylthio)ethyl)-4-(pyrazin-2-yl)-5-(1,3-thiazol-5-yl)-pyrrolidine-2-carboxylic acid, reference compound] has an IC50 of over 1000 nM. Work on `COc1cc(C(=O)N2[C@@H](c3nccs3)[C@@H](c3cnccn3)C[C@@]2(CCS(C)(=O)=O)C(=O)O)ccc1C(C)(C)C` (racemic) [Compound F, rel-(2R,4S,5R)-1-(4-tert-Butyl-3-methoxybenzoyl)-2-(2-(methylsulphonyl)ethyl)-4-pyrazin-2-yl-5-(1,3-thiazol-2-yl)-pyrrolidine-2-carboxylic acid, reference compound] yielded an IC50 of over 1000 nM. `COc1cc(C(=O)N2[C@@H](c3nccs3)[C@@H](c3cnccn3)C[C@@]2(Cc2ccccc2)C(=O)O)ccc1C(C)(C)C` (racemic) [Compound G, rel-(2R,4S,5R)-1-(4-tert-Butyl-3-methoxybenzoyl)-2-(phenylmethyl)-4-(pyrazin-2-yl)-5-(1,3-thiazol-2-yl)pyrrolidine-2-carboxylic acid, reference compound] was tested, and the IC50 was over 1000 nM. Compound `COc1cc(C(=O)N2[C@@H](c3nccs3)[C@@H](c3cnccn3)C[C@@]2(Cc2cscn2)C(=O)O)ccc1C(C)(C)C` (racemic) [Example 1, rel-(2R,4S,5R)-1-(3-Methoxy-4-tert-butylbenzoyl)-4-(pyrazin-2-yl)-2-(1,3-thiazol-4-ylmethyl)-5-(1,3-thiazol-2-yl)pyrrolidine-2-carboxylic acid] has an IC50 of under 150 nM. Compound `COc1cc(C(=O)N2[C@@H](c3nccs3)[C@@H](c3cnccn3)C[C@@]2(Cc2nccs2)C(=O)O)ccc1C(C)(C)C` (racemic) [Example 3, rel-(2R,4S,5R)-1-(3-Methoxy-4-tert-butylbenzoyl)-4-(pyrazin-2-yl)-2-(1,3-thiazol-2-ylmethyl)-5-(1,3-thiazol-2-yl)pyrrolidine-2-carboxylic acid] has an IC50 of under 150 nM. In the case of `COc1cc(C(=O)N2[C@@H](c3ncc(C)s3)[C@@H](c3cnccn3)C[C@@]2(Cc2ccsn2)C(=O)O)ccc1C(C)(C)C` (racemic) [Example 5, rel-(2R,4S,5R)-1-(3-Methoxy-4-tert-butylbenzoyl)-5-(5-methyl-1,3-thiazol-2-yl)-4-(pyrazin-2-yl)-2-(1,2-thiazol-3-ylmethyl)pyrrolidine-2-carboxylic acid], the IC50 is reported as under 150 nM. For `COc1cc(C(=O)N2[C@@H](c3nccs3)[C@@H](c3cnccn3)C[C@@]2(Cc2ccsn2)C(=O)O)ccc1C(C)(C)C` (racemic) [Example 7, rel-(2R,4S,5R)-1-(3-Methoxy-4-tert-butylbenzoyl)-4-(pyrazin-2-yl)-2-(1,2-thiazol-3-ylmethyl)-5-(1,3-thiazol-2-yl)pyrrolidine-2-carboxylic acid], the IC50 was under 150 nM. Compound `COc1cc(C(=O)N2[C@@H](c3ncc(C)s3)[C@@H](c3cnccn3)C[C@@]2(Cn2cccn2)C(=O)O)ccc1C(C)(C)C` (racemic) [Example 9, rel-(2R,4S,5R)-1-(3-Methoxy-4-tert-butylbenzoyl)-5-(5-methyl-1,3-thiazol-2-yl)-4-(pyrazin-2-yl)-2-(1H-pyrazol-1-ylmethyl)pyrrolidine-2-carboxylic acid] has an IC50 of under 150 nM. Compound `COc1cc(C(=O)N2[C@@H](c3nccs3)[C@@H](c3cnccn3)C[C@@]2(Cn2cccn2)C(=O)O)ccc1C(C)(C)C` (racemic) [Example 11, rel-(2R,4S,5R)-1-(3-Methoxy-4-tert-butylbenzoyl)-4-(pyrazin-2-yl)-2-(1H-pyrazol-1-ylmethyl)-5-(1,3-thiazol-2-yl)pyrrolidine-2-carboxylic acid] has an IC50 of under 150 nM. `COc1cc(C(=O)N2[C@@H](c3ncc(C)s3)[C@@H](c3cnccn3)C[C@@]2(Cc2nccs2)C(=O)O)ccc1C(C)(C)C` (racemic) [Example 13, rel-(2R,4S,5R)-1-(3-Methoxy-4-tert-butylbenzoyl)-5-(5-methyl-1,3-thiazol-2-yl)-4-(pyrazin-2-yl)-2-(1,3-thiazol-2-ylmethyl)pyrrolidine-2-carboxylic acid] gave an IC50 of under 150 nM. For `COc1cc(C(=O)N2[C@@H](c3ncc(C)s3)[C@@H](c3cnccn3)C[C@@]2(Cc2cscn2)C(=O)O)ccc1C(C)(C)C` (racemic) [Example 15, rel-(2R,4S,5R)-1-(3-Methoxy-4-tert-butylbenzoyl)-5-(5-methyl-1,3-thiazol-2-yl)-4-(pyrazin-2-yl)-2-(1,3-thiazol-4-ylmethyl)pyrrolidine-2-carboxylic acid], the IC50 was under 150 nM. With `COc1cc(C(=O)N2[C@@H](c3nccs3)[C@@H](c3cnccn3)C[C@@]2(CC(C)C)C(=O)O)ccc1C(C)(C)C` (single isomer, unassigned; enantiomer a) [Compound B, reference compound] the IC50 was over 1000 nM. Work on `COc1cc(C(=O)N2[C@@H](c3nccs3)[C@@H](c3cnccn3)C[C@@]2(Cc2cscn2)C(=O)O)ccc1C(C)(C)C` (single isomer, unassigned; enantiomer a) [Example 2] yielded an IC50 of under 150 nM. With `COc1cc(C(=O)N2[C@@H](c3nccs3)[C@@H](c3cnccn3)C[C@@]2(Cc2nccs2)C(=O)O)ccc1C(C)(C)C` (single isomer, unassigned; enantiomer a) [Example 4] the IC50 was under 150 nM. `COc1cc(C(=O)N2[C@@H](c3ncc(C)s3)[C@@H](c3cnccn3)C[C@@]2(Cc2ccsn2)C(=O)O)ccc1C(C)(C)C` (single isomer, unassigned; enantiomer a) [Example 6] was tested, and the IC50 was under 150 nM. `COc1cc(C(=O)N2[C@@H](c3nccs3)[C@@H](c3cnccn3)C[C@@]2(Cc2ccsn2)C(=O)O)ccc1C(C)(C)C` (single isomer, unassigned; enantiomer a) [Example 8] gave an IC50 of under 150 nM. `COc1cc(C(=O)N2[C@@H](c3ncc(C)s3)[C@@H](c3cnccn3)C[C@@]2(Cn2cccn2)C(=O)O)ccc1C(C)(C)C` (single isomer, unassigned; enantiomer a) [Example 10] showed an IC50 of under 150 nM. `COc1cc(C(=O)N2[C@@H](c3nccs3)[C@@H](c3cnccn3)C[C@@]2(Cn2cccn2)C(=O)O)ccc1C(C)(C)C` (single isomer, unassigned; enantiomer a) [Example 12] was tested, and the IC50 was under 150 nM. In the case of `COc1cc(C(=O)N2[C@@H](c3ncc(C)s3)[C@@H](c3cnccn3)C[C@@]2(Cc2nccs2)C(=O)O)ccc1C(C)(C)C` (single isomer, unassigned; enantiomer a) [Example 14], the IC50 is reported as under 150 nM.
